Values of other authors in patent US11530415B2, “Genetically engineered Streptomyces capable of thaxtomin production in the absence of thaxtomin-inducing conditions and methods of producing thaxtomin” (University of Florida Research Foundation, Inc., priority 2017, dated 2022).

Tested on: cellulose biosynthesis
Conditions: background statement, no method given

CN1C(=O)[C@](O)(Cc2cccc(O)c2)N(C)C(=O)[C@@H]1Cc1c[nH]c2cccc([N+](=O)[O-])c12 [Thaxtomin A, thaxtomin A]
potency in inhibiting cellulose biosynthesis: excellent potency (in an nM range)
